A value given as a limit tells only on which side of the number the result lay.

What is called viability is a per cent measure of how many cells are alive, often set against a control. Low values mean a greater loss of cells, high ones better survival. What is called IC50 is the concentration needed to halve the response being measured.

The nature of data set [1]: MTT cell toxicity assay in N2A cells. Type of data set: cell-based. To be noted: mouse, N2A (Neuro2A) cells, all doses (25 to 100 μM). How it is done:
HEK293T, HepG2, and N2A cells were used in the study representing kidney, liver and neuronal cell lines respectively. The cells were cultured in DMEM supplemented with 10% fetal bovine serum and antibiotics at 37°C under 5% CO2. The cells were tested negative for mycoplasma.
To evaluate the compound toxicity for the Cdk5 inhibitors, an MTT assay was performed in HEK293T, HepG2, and N2A cells at varying concentrations. Six hours after cell seeding, the compounds were added in different amounts, and the cells were harvested after 24 h for further analysis. N2A cells were transfected using Lipofectamine-3000 reagent, co-transfecting with plasmids encoding Cdk5/p35 and Cdk5/p25 for 12 h, followed by inhibitor treatment to assess their effects in the cell culture system. The concentrations of each plasmids used was 1 μg, total of 3 μg per well for 6 well plates.
On the technique in general: Formazan colour is commonly taken as a measure of viable cells.

For the next data set, the system named is amyloid beta (Aβ) 1–42. Nature of the data set: Amyloid beta 1-42 in hippocampus of treated HFD mice (ELISA and immunohistochemistry). The class given is in vivo. To be noted: i.p., 40 mg/kg. For orientation: An ELISA detects its analyte on a solid surface through an enzyme-linked reagent.
Data set [2] has as its system HFD-fed mice. Briefly: Rotarod test in HFD mice. Particulars: i.p., 20 days. Type of data set: in vivo. The procedure:
Rats and mice have been tested for motor coordination using the rotarod test. The animals were placed on a horizontal rod that rotates around its long axis for this test; in order to remain upright and prevent sliding off, the animal must move ahead. Every 5 min, the rod’s speed was raised, and the number of falls were counted to assess the motor coordination.[23]^,[55]
On the technique in general: Falling from the rotarod earlier than controls is read as motor impairment.

The target of another data set is Cdk1/CylY. Nature of the data set: Specificity kinase assay, Cdk1 with cyclin Y. The class given is biochemical. Particulars: inhibitor 0-100 nM; read-out: IC50, Cdk1 with activator cyclin Y. From the text: (§1) To assess the specificity of inhibitors BLINK11 and BLINK15 against CDK5, we investigated their effects on different Cdks, i.e., Cdk1, Cdk2, and Cdk9 that share structural homology with CDK5. […] However, these IC50 values were higher than those observed for CDK5/p35 and CDK5/p25. […] Overall, BLINK11 and BLINK15 can selectively target CDK5 at lower concentrations. […]
(§2) IC50 of all the kinases for both BLINK11 and BLINK15 inhibitors.

Data set [3] relates to HFD-fed mice. Briefly: Grip strength test in HFD mice. Type of data set: in vivo. To be noted: i.p., 40 mg/kg/day, 20 days. How it is done:
A grip strength meter was used to measure the forelimb grip strength in mice.[54] The mouse was given a chance to grab the gauge with its forelimbs before having its tail gently pulled back. Digital transducers were used to record the muscular force. Five trials were conducted on each mouse.[23]

The next data set concerns T1, CDK5.
T1 construct: Cdk5 kinase activity using pulled down Cdk5 from the hippocampus lysate of the mouse groups; from tissue; host or cells: hippocampus / brain lysate of male C57BL/6J mice on high-fat diet
Nature of the data set: Cdk5 kinase activity of Cdk5 pulled down from hippocampus lysate of treated HFD mice. The class given is in vivo. To be noted: i.p., 20 days, in the presence of p25. The procedure: Cdk5 was immunoprecipitated from N2A cells and brain lysate using a Cdk5 antibody. Kinase assays were performed using a Promega ADP-Glo Kinase Assay kit with Cdk5/p35 and Cdk5/p25 complexes. Histone was used as a substrate to test kinase activity Cdk5 was immunoprecipitated from N2a cells overexpressing Cdk5/p35 and Cdk5/p25, following treatment with BLINK11 and BLINK15 inhibitors at concentrations of 50nM and 100nM, using a Cdk5 antibody. A kinase assay was subsequently conducted as described in Bankston et al.[53] Additionally, Cdk5 was precipitated from mouse brain lysates treated with BLINK11 and BLINK15 inhibitors. The immunoprecipitation was performed with 100 μL of A/G beads, 2 μg of Cdk5 antibody, and 150 μg of cell and brain lysates, with elution carried out using a urea elution buffer. The kinase assay was conducted using the ADP-Glo Kinase Assay Kit (Promega) with immunoprecipitated Cdk5, ATP, and 1–2 μg of histone as the substrate.

For data set [4], the system named is HFD-fed mice. Nature of the data set: Y-maze test in HFD mice. The class given is in vivo. Particulars: i.p., 20 days. The procedure: As previously mentioned, the Y-maze test was utilized to evaluate the mouse groups' short-term spatial memory The Y-maze test was used to assess short-term spatial memory in the mouse groups. The apparatus consists of three arms arranged in a Y-shape, typically labeled A, B, and C, with each arm having the same length and width. Mice were initially placed in one arm (usually arm A) and allowed to explore freely for 5 min, with one of the other arms blocked off, restricting exploration to the starting arm and the remaining open arm. After a 5-min delay, the mouse was reintroduced to the maze with all arms accessible. The time spent in each arm and the number of entries into each arm were recorded over a 5-min period. […] We also evaluated the mice’s spontaneous alternation rate during the Y-maze test. Spontaneous alternation reflects working memory, as it refers to the mouse’s tendency to enter a less recently visited arm. The sequence and number of arm entries were tracked, with an alternation defined as consecutive entries into all three arms without repetition (e.g., A-B-C, B-C-A).[59]^,[60]^,[61] […] As a result, we evaluated the novel arm’s exploration according to many criteria.Spontaneous Alternation (%) = {(Number of alternations)/ (Total arm entries−2)} ×100

Data set [5] has as its system HFD-fed mice. Briefly: Glucose tolerance test (GTT) in HFD mice. Type of data set: in vivo. Particulars: i.p., both dosages 20 and 40 mg/kg/day, 20 days. How it is done: For the glucose tolerance test, 2 g/kg of glucose was utilized, and 0.75U/kg of human insulin was employed The glucose tolerance test (GTT) and insulin tolerance test (ITT) were performed in HFD mice models after 20 weeks of HFD feeding followed by 20 days of drug administration.[48] For GTT the mice were kept in a fasting period for overnight before glucose injections of 2 g/kg intraperitoneally. For ITT the mice were kept in a fasting for 6 h prior to insulin injection of 0.75 U/kg intraperitoneally. A one-touch glucometer was used to assess the blood sugar levels at various intervals (0, 60, and 120 min) following intraperitoneal infusion of both glucose and insulin.[23]^,[49]^,[50]^,[51] After 20 weeks of a HFD and 20 days of drug administration, the tests were carried out.

The next data set has as its system Cdk2/CylA2. Briefly: Specificity kinase assay, Cdk2 with cyclin A2. The class given is biochemical. To be noted: inhibitor 0-100 nM.
Description: as §1, §2

A further data set deals with Cdk9/CylT. Nature of the data set: Specificity kinase assay, Cdk9 with cyclin T. The class given is biochemical. Particulars: inhibitor 0-100 nM.
Description: To assess the specificity of inhibitors BLINK11 and BLINK15 against CDK5, we investigated their effects on different Cdks, i.e., Cdk1, Cdk2, and Cdk9 that share structural homology with CDK5. […] However, these IC50 values were higher than those observed for CDK5/p35 and CDK5/p25. […] Overall, BLINK11 and BLINK15 can selectively target CDK5 at lower concentrations.
ligands are illustrated with red lines. The RMSD plots for the interactions of BLINK11 and
Figure S3: BBB Permeability assay and Evaluation of non-specific kinase inhibition by
BLINK11 and BLINK15 (A-B) PAMPA assay results of BLINK11 and BLINK15 compound.
as §2
(1 picture or pasted object on this page, not shown here)

Chain of Cdk1/CylY (P06493 whole entry): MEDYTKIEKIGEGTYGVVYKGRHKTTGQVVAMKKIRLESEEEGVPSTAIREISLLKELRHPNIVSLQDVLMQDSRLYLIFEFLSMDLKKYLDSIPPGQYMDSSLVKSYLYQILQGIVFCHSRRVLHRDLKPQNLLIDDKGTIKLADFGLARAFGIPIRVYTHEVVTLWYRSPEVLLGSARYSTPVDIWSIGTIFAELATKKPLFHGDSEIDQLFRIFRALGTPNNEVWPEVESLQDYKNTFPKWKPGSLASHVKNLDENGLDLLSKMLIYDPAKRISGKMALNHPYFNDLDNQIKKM
Chain of Cdk1/CylY (Q8ND76 2-341 partner): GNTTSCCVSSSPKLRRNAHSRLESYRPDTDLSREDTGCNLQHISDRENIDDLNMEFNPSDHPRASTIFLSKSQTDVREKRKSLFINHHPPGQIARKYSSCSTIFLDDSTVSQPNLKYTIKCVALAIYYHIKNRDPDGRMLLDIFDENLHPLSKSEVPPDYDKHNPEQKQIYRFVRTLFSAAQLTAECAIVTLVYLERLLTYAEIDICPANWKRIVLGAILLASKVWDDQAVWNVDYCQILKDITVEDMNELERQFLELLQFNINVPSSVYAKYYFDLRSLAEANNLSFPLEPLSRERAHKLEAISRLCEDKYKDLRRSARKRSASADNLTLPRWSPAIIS

Consider `O=C(COc1ccccc1C(=O)Nc1cccc(Cl)c1Cl)Nc1ccc(N2CCOCC2)c(Cl)c1` [BLINK11, 2-(2-((3-chloro-4-morpholinophenyl)amino)-2-oxoethoxy)-N-(2,3-dichlorophenyl)benzamide], for which the viability at 24 h in [1] was > 50%. For the same compound, in the data set on amyloid beta (Aβ) 1–42, the “Aβ 1–42 accumulation in the hippocampus” value was “significantly reduced”. In addition, the “Muscle strength and motor coordination on the rotarod” value in the data set on HFD-fed mice [2] is reported as “rescue effect”. At Cdk1/CylY, the IC50 was found to be 39.3 nM. Moreover, the Grip strength entry in the data set on HFD-fed mice [3] is “rescue behavior”. Moreover, the “CDK5 activity in hippocampal lysate” value with CDK5 is reported as “significant reduction in CDK5 activity”. The Y-maze alteration percentage result is reported as “did not exhibit any rescue effect” in the data set on HFD-fed mice [4] (20 mg/kg/day) and “the decrease in alteration percentage was recovered” in the data set on HFD-fed mice [4] (40 mg/kg/day). The “Glucose tolerance test (GTT)” value with HFD-fed mice [5] is reported as “significant rescue”. The “Inhibition of Cdk2 (with cyclin A2)” value in the data set on Cdk2/CylA2 is on record as “minimal inhibition”. Moreover, the “Inhibition of Cdk9 (with cyclin T)” value in the data set with Cdk9/CylT is on record as “minimal inhibition”.

For `COc1ccc(C(=O)C[C@@]2(O)C(=O)N(Cc3ccccc3)c3ccc(Br)cc32)cc1[N+](=O)[O-]` [BLINK15], in data set [1], the viability at 24 h is > 50%. The half-maximal inhibitory concentration (IC50) at Cdk1/CylY worked out at 35.8 nM. In addition, the Grip strength result in the data set with HFD-fed mice [3] was “rescue behavior”. The “CDK5 activity in hippocampal lysate” value in the data set with CDK5 is reported as “significant reduction in CDK5 activity”. Moreover, the “Glucose tolerance test (GTT)” value in the data set with HFD-fed mice [5] is “significant rescue”. In addition, in the data set on Cdk2/CylA2, the “Inhibition of Cdk2 (with cyclin A2)” value is reported as “minimal inhibition”. Also, the “Inhibition of Cdk9 (with cyclin T)” value in the data set on Cdk9/CylT is “minimal inhibition”.
